Assay results published in patent US20230002367A1, “BIFUNCTIONAL COMPOUNDS” (Hoffmann-La Roche Inc., priority 2019, published 2023).

Biological target: T1, SMARCA2 (Homo sapiens, UniProt P51531)
T1 construct: endogenous in cells
Assay: SMARCA2 HiBiT degradation assay (cellular)
Format: cell-based
Details: for Emax: A549, Emax = amount of residual protein remaining in the cell following compound treatment; for DC50: SMARCA2 HiBiT cells, luminescence readout, 11-point titration from 10 μM, 6 hours or 16 hours, read-out: HiBit A549 SMARCA2 IP

T1 sequence (P51531 whole entry): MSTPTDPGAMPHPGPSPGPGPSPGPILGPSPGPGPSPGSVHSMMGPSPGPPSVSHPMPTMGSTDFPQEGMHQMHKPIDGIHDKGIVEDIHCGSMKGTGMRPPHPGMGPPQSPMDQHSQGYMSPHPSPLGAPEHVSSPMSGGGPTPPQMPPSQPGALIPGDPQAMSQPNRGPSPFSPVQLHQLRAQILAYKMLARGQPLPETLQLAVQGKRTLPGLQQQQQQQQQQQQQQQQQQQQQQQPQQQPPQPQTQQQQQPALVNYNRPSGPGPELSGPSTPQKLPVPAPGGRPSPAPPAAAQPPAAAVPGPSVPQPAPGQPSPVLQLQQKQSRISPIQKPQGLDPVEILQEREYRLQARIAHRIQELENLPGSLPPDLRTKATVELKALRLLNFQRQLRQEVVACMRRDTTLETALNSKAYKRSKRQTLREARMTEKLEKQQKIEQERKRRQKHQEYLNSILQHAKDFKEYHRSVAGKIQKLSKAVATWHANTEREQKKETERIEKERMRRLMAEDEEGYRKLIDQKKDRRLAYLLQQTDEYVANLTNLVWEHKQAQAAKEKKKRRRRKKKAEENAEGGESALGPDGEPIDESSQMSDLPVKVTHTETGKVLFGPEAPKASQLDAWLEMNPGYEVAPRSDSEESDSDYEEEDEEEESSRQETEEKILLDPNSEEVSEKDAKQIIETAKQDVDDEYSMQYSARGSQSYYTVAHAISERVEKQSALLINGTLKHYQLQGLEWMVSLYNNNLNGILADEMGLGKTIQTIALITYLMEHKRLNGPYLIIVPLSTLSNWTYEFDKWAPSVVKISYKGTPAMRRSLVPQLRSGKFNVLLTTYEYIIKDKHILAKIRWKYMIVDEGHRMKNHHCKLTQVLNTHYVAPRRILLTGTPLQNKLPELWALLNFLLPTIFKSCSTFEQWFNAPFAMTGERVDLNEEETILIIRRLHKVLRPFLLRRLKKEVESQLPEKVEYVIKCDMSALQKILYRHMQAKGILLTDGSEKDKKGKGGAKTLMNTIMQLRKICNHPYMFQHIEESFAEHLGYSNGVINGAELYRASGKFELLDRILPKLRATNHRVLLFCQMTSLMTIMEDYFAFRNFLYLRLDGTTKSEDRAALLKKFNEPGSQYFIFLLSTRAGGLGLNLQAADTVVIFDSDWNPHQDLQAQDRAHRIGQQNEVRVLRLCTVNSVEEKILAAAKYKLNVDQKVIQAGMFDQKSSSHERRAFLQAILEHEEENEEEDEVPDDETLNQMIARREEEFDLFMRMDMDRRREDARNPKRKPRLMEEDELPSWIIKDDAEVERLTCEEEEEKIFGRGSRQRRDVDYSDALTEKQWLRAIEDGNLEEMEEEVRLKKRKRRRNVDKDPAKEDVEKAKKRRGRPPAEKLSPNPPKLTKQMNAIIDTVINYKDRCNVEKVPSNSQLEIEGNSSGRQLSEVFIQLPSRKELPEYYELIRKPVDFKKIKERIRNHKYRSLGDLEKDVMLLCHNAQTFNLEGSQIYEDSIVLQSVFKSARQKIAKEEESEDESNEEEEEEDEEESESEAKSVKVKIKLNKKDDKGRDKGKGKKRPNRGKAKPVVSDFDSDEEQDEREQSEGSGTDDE

| Compound | Emax [%] | DC50 [nM] |
| --- | --- | --- |
| Cc1ncsc1-c1ccc(CNC(=O)[C@@H]2C[C@@H](O)CN2C(=O)[C@@H](NC(=O)CCCCCCCCC(=O)N2CCN(CCOc3cccc(C#Cc4cc(-c5ccccc5O)nnc4N)c3)CC2)C(C)(C)C)cc1 [Example 35, (2S,4R)-1-[(2S)-2-[[10-[4-[2-[3-[2-[3-amino-6-(2-hydroxyphenyl)pyridazin-4-yl]ethynyl]phenoxy]ethyl]piperazin-1-yl]-10-oxo-decanoyl]amino]-3,3-dimethyl-butanoyl]-4-hydroxy-N-[[4-(4-methylthiazol-5-yl)phenyl]methyl]pyrrolidine-2-carboxamide] | 39 | 952 |
| Cc1ncsc1-c1ccc(CNC(=O)[C@@H]2C[C@@H](O)CN2C(=O)[C@@H](NC(=O)CCCCCCCCCCC(=O)N2CCN(CCOc3cccc(C#Cc4cc(-c5ccccc5O)nnc4N)c3)CC2)C(C)(C)C)cc1 [Example 36, (2S,4R)-1-[(2S)-2-[[12-[4-[2-[3-[2-[3-amino-6-(2-hydroxyphenyl)pyridazin-4-yl]ethynyl]phenoxy]ethyl]piperazin-1-yl]-12-oxo-dodecanoyl]amino]-3,3-dimethyl-butanoyl]-4-hydroxy-N-[[4-(4-methylthiazol-5-yl)phenyl]methyl]pyrrolidine-2-carboxamide] | 49 | 838 |
| Cc1ncsc1-c1ccc([C@H](C)NC(=O)[C@@H]2C[C@@H](O)CN2C(=O)[C@@H](NC(=O)CCCCCCCCCC(=O)N2CCN(CCOc3cccc(N4C5CCC4CN(c4cc(-c6ccccc6O)nnc4N)C5)c3)CC2)C(C)(C)C)cc1 [Example 37, (2S,4R)-1-[(2S)-2-[[11-[4-[2-[3-[3-[3-amino-6-(2-hydroxyphenyl)pyridazin-4-yl]-3,8-diazabicyclo[3.2.1]octan-8-yl]phenoxy]ethyl]piperazin-1-yl]-11-oxo-undecanoyl]amino]-3,3-dimethyl-butanoyl]-4-hydroxy-N-[(1S)-1-[4-(4-methylthiazol-5-yl)phenyl]ethyl]pyrrolidine-2-carboxamide] | 29 | 73 |
| Cc1ncsc1-c1ccc([C@H](C)NC(=O)[C@@H]2C[C@@H](O)CN2C(=O)[C@@H](NC(=O)CCC(=O)N2CCOC3(CCN(c4cc(-c5ccccc5O)nnc4N)CC3)C2)C(C)(C)C)cc1 [Example 42, (2S,4R)-1-[(2S)-2-[[4-[9-[3-amino-6-(2-hydroxyphenyl)pyridazin-4-yl]-1-oxa-4,9-diazaspiro[5.5]undecan-4-yl]-4-oxo-butanoyl]amino]-3,3-dimethyl-butanoyl]-4-hydroxy-N-[(1S)-1-[4-(4-methylthiazol-5-yl)phenyl]ethyl]pyrrolidine-2-carboxamide] | 71 | 561 |
| Cc1ncsc1-c1ccc([C@H](C)NC(=O)[C@@H]2C[C@@H](O)CN2C(=O)[C@@H](NC(=O)CCCCCC(=O)N2CCOC3(CCN(c4cc(-c5ccccc5O)nnc4N)CC3)C2)C(C)(C)C)cc1 [Example 43, (2S,4R)-1-[(2S)-2-[[7-[9-[3-amino-6-(2-hydroxyphenyl)pyridazin-4-yl]-1-oxa-4,9-diazaspiro[5.5]undecan-4-yl]-7-oxo-heptanoyl]amino]-3,3-dimethyl-butanoyl]-4-hydroxy-N-[(1S)-1-[4-(4-methylthiazol-5-yl)phenyl]ethyl]pyrrolidine-2-carboxamide] | 23 | 749 |
| Cc1ncsc1-c1ccc([C@H](C)NC(=O)[C@@H]2C[C@@H](O)CN2C(=O)[C@@H](NC(=O)CCCCCCCCCCC(=O)N2CCOC3(CCN(c4cc(-c5ccccc5O)nnc4N)CC3)C2)C(C)(C)C)cc1 [Example 44, (2S,4R)-1-[(2S)-2-[[12-[9-[3-amino-6-(2-hydroxyphenyl)pyridazin-4-yl]-1-oxa-4,9-diazaspiro[5.5]undecan-4-yl]-12-oxo-dodecanoyl]amino]-3,3-dimethyl-butanoyl]-4-hydroxy-N-[(1S)-1-[4-(4-methylthiazol-5-yl)phenyl]ethyl]pyrrolidine-2-carboxamide] | 21 | 205 |
| Cc1ncsc1-c1ccc([C@H](C)NC(=O)[C@@H]2C[C@@H](O)CN2C(=O)[C@@H](NC(=O)CCCCCCCCCCCCC(=O)N2CCOC3(CCN(c4cc(-c5ccccc5O)nnc4N)CC3)C2)C(C)(C)C)cc1 [Example 45, (2S,4R)-1-[(2S)-2-[[14-[9-[3-amino-6-(2-hydroxyphenyl)pyridazin-4-yl]-1-oxa-4,9-diazaspiro[5.5]undecan-4-yl]-14-oxo-tetradecanoyl]amino]-3,3-dimethyl-butanoyl]-4-hydroxy-N-[(1S)-1-[4-(4-methylthiazol-5-yl)phenyl]ethyl]pyrrolidine-2-carboxamide] | 33 | 120 |
| Cc1ncsc1-c1ccc(CNC(=O)[C@@H]2C[C@@H](O)CN2C(=O)[C@@H](NC(=O)CCCCCCCCC(=O)NCC(COc2cc(-c3ccccc3O)nnc2N)c2ccccc2)C(C)(C)C)cc1 (stereo partly drawn) [Example 50, N1-(3-((3-amino-6-(2-hydroxyphenyl)pyridazin-4-yl)oxy)-2-phenylpropyl)-N10-((S)-1-((2S,4R)-4-hydroxy-2-((4-(4-methylthiazol-5-yl)benzyl)carbamoyl)pyrrolidin-1-yl)-3,3-dimethyl-1-oxobutan-2-yl)decanediamide] | 63 | 2150 |
| Cc1ncsc1-c1ccc(CNC(=O)[C@@H]2C[C@@H](O)CN2C(=O)[C@@H](NC(=O)CCCCCCCCC(=O)N2CCN(CCOc3cccc(N4CCOC5(CCN(c6cc(-c7ccccc7O)nnc6N)CC5)C4)c3)CC2)C(C)(C)C)cc1 [Example 52, (2S,4R)-1-[(2S)-2-[[10-[4-[2-[3-[9-[3-amino-6-(2-hydroxyphenyl)pyridazin-4-yl]-1-oxa-4,9-diazaspiro[5.5]undecan-4-yl]phenoxy]ethyl]piperazin-1-yl]-10-oxo-decanoyl]amino]-3,3-dimethyl-butanoyl]-4-hydroxy-N-[[4-(4-methylthiazol-5-yl)phenyl]methyl]pyrrolidine-2-carboxamide] | 56 | 533 |
| Cc1ncsc1-c1ccc(CNC(=O)[C@@H]2C[C@@H](O)CN2C(=O)[C@@H](NC(=O)CCCCCCCCC(=O)N2CCN(Cc3cccc(C#Cc4cc(-c5ccccc5O)nnc4N)c3)CC2)C(C)(C)C)cc1 [Example 53, (2S,4R)-1-[(2S)-2-[[10-[4-[[3-[2-[3-amino-6-(2-hydroxyphenyl)pyridazin-4-yl]ethynyl]phenyl]methyl]piperazin-1-yl]-10-oxo-decanoyl]amino]-3,3-dimethyl-butanoyl]-4-hydroxy-N-[[4-(4-methylthiazol-5-yl)phenyl]methyl]pyrrolidine-2-carboxamide] | 44 | 240 |
| Cc1ncsc1-c1ccc(CNC(=O)[C@@H]2C[C@@H](O)CN2C(=O)[C@@H](NC(=O)CCCCCCCCCCC(=O)N2CCN(Cc3cccc(C#Cc4cc(-c5ccccc5O)nnc4N)c3)CC2)C(C)(C)C)cc1 [Example 54, (2S,4R)-1-[(2S)-2-[[12-[4-[[3-[2-[3-amino-6-(2-hydroxyphenyl)pyridazin-4-yl]ethynyl]phenyl]methyl]piperazin-1-yl]-12-oxo-dodecanoyl]amino]-3,3-dimethyl-butanoyl]-4-hydroxy-N-[[4-(4-methylthiazol-5-yl)phenyl]methyl]pyrrolidine-2-carboxamide] | 35 | 503 |
| Cc1ncsc1-c1ccc(CNC(=O)[C@@H]2C[C@@H](O)CN2C(=O)[C@@H](NC(=O)CCCCCCCCC(=O)N2CCN(CCOc3ccccc3N3C4CCC3CN(c3cc(-c5ccccc5O)nnc3N)C4)CC2)C(C)(C)C)cc1 [Example 55, (2S,4R)-1-[(2S)-2-[[10-[4-[2-[2-[3-[3-amino-6-(2-hydroxyphenyl)pyridazin-4-yl]-3,8-diazabicyclo[3.2.1]octan-8-yl]phenoxy]ethyl]piperazin-1-yl]-10-oxo-decanoyl]amino]-3,3-dimethyl-butanoyl]-4-hydroxy-N-[[4-(4-methylthiazol-5-yl)phenyl]methyl]pyrrolidine-2-carboxamide] | 27 | 2580 |
| Cc1ncsc1-c1ccc([C@H](C)NC(=O)[C@@H]2C[C@@H](O)CN2C(=O)[C@@H](NC(=O)CCCCCCCCCC(=O)N2CCN(CCOc3cccc(N4C5CCC4CN(c4cc(-c6ccccc6O)nnc4N)C5)c3)CC2)C(C)C)cc1 [Example 56, (2S,4R)-1-[(2S)-2-[[11-[4-[2-[3-[3-[3-amino-6-(2-hydroxyphenyl)pyridazin-4-yl]-3,8-diazabicyclo[3.2.1]octan-8-yl]phenoxy]ethyl]piperazin-1-yl]-11-oxo-undecanoyl]amino]-3-methyl-butanoyl]-4-hydroxy-N-[(1S)-1-[4-(4-methylthiazol-5-yl)phenyl]ethyl]pyrrolidine-2-carboxamide] | 20 | 91 |
| Cc1ncsc1-c1ccc([C@H](C)NC(=O)[C@@H]2C[C@@H](O)CN2C(=O)[C@@H](NC(=O)CCCCCC(=O)N2CCN(CCOc3cccc(CCOc4cc(-c5ccccc5O)nnc4N)c3)CC2)C(C)(C)C)cc1 [Example 57, (2S,4R)-1-[(2S)-2-[[7-[4-[2-[3-[2-[3-amino-6-(2-hydroxyphenyl)pyridazin-4-yl]oxyethyl]phenoxy]ethyl]piperazin-1-yl]-7-oxo-heptanoyl]amino]-3,3-dimethyl-butanoyl]-4-hydroxy-N-[(1S)-1-[4-(4-methylthiazol-5-yl)phenyl]ethyl]pyrrolidine-2-carboxamide] | 35 | 736 |
| Cc1ncsc1-c1ccc([C@H](C)NC(=O)[C@@H]2C[C@@H](O)CN2C(=O)[C@@H](NC(=O)CCCCCCCCC(=O)N2CCN(CCOc3cccc(CCOc4cc(-c5ccccc5O)nnc4N)c3)CC2)C(C)(C)C)cc1 [Example 58, (2S,4R)-1-[(2S)-2-[[10-[4-[2-[3-[2-[3-amino-6-(2-hydroxyphenyl)pyridazin-4-yl]oxyethyl]phenoxy]ethyl]piperazin-1-yl]-10-oxo-decanoyl]amino]-3,3-dimethyl-butanoyl]-4-hydroxy-N-[(1S)-1-[4-(4-methylthiazol-5-yl)phenyl]ethyl]pyrrolidine-2-carboxamide] | 22 | 197 |
